The text below walks through data of US8933039B2 (NPS Pharmaceuticals, Inc., priority 1995, dated 2015).

One series concerns the target human placental DPP-IV (Homo sapiens, UniProt P27487). Kind of series: Assay for resistance to dipeptidyl peptidase IV (RP-HPLC of cleavage product). Conditions: human placental DPP-IV 0.125 mU, peptide 0.2 mg/ml, PBS pH 7.4, 37° C.
For series [1], the target named is T1, DPP-IV (Homo sapiens, UniProt P27487). The description is as above. Conditions: human, isolated human placental DPP-IV (dipeptidyl peptidase IV).
The test system of the next series is CD1 mice. Kind of series: Intestinotrophic activity assessment: small bowel weight in mice. Type of series: in vivo. Conditions: for % Increase in small bowel weight: CD1 mice, 2.5 μg peptide s.c. b.i.d. in PBS, sacrificed 10 or 14 days, relative to vehicle only; for % Activity (small bowel inducing activity relative to native rat GLP-2(1-33) = 100%): mice, as Example 4; for intestinotrophic activity compared with the naturally occurring molecule / rGLP-2 (in words): comment on Table 1, CD1 mice. In short, it runs like this: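 Activity expressed against native rat GLP-2(1-33) (100%) and as percent bowel-weight change over vehicle controls, from excised pylorus-to-cecum small bowel. Dosing: 2.5 μg peptide subcutaneously twice daily to 6-week female CD1 mice (n=3-4), killed at day 10 or 14 after fasting ≥20 h.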

Series [2] concerns the target T1, DPP-IV. The series can be described thus: in vitro. Conditions: isolated enzyme dpp iv, pH 7.4, % Cleaved by DPP-IV.
The subject of another series is Fisher 334 DPP-IV-rats. Kind of series: Small bowel weight in DPP-IV deficient Fisher rats. Type of series: in vivo. Conditions: 20 μg b.i.d. s.c. in PBS, vs vehicle. The protocol: (§1) The following experiments were conducted to confirm that the increase in bowel weight seen in experimental animals treated with DPP-IV resistant analogs of GLP-2, compared with animals treated with wild-type GLP-2, was attributable in part to the DPP-IV resistant nature of the molecules. This experiment took advantage of the availability of a DPP-IV deficient rat strain, Fisher 334 DPP-IV-rats. The effect of rGLP-2 injections on small bowel weight in the Fisher DPP-IV deficient rats was compared to that in normal Sprague-Dawley rats.
(§2) In the following experiments the Sprague-Dawley rats were injected s.c. twice daily with rGLP-2 in the Gelatin formulation. The Fisher rats were injected s.c. twice daily with GLP-2 peptides (both rGLP-2, and rGLP-2 analogs) in PBS.

In another series the test system is Sprague-Dawley rats. Kind of series: Small bowel weight in normal Sprague-Dawley rats. In kind it is in vivo. Conditions: gelatin formulation, vs vehicle. The protocol: as §1, §2
The subject of series [3] is Fisher 344 wild-type rats. The series can be described thus: Small bowel weight in Fisher 344 wild-type rats. Conditions: 20 μg b.i.d. s.c. in PBS, over vehicle control. Type of series: in vivo. As for the experimental part: as §2
The subject of series [4] is dipeptidyl peptidase IV (DPP-IV). Kind of series: human placental DPP-IV (Calbiochem), 0.125 mU, added to test peptide in PBS at pH 7.4. Conditions: 37° C., up to 24 hours.
Setting [5] is: pH 7.4, % Cleaved by DPP-IV, as Example 3: human placental DPP-IV, 37° C., PBS pH 7.4.

Non-standard residues stand in square brackets, D forms with d. Residues, ends and D or L forms follow the SMILES beside them. Tle = CC(C)(C)[C@H](N)C(=O)O; βAla = NCCC(=O)O

T1 sequence (P27487 whole entry): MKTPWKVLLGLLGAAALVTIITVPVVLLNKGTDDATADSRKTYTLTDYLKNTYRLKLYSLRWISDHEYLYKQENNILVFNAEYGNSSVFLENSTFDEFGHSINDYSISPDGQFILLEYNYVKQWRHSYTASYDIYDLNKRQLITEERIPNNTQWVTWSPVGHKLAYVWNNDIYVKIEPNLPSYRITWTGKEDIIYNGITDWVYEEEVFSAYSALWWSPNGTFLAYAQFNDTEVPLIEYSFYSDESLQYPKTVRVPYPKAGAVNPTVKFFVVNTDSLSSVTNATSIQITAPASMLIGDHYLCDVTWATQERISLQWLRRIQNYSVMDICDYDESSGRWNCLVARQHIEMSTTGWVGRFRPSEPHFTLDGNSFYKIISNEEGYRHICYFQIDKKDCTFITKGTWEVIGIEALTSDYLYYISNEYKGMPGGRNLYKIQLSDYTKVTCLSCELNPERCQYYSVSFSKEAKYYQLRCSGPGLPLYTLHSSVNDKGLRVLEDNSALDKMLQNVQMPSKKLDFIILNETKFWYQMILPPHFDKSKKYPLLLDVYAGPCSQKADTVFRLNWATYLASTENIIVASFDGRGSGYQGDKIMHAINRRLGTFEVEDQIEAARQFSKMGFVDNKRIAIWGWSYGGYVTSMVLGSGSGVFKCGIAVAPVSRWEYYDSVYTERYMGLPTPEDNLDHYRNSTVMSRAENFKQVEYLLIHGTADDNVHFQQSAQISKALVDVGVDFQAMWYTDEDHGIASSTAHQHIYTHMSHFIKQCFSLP
Chain of human placental DPP-IV (P27487 whole entry): as above

Turning to `CC[C@H](C)[C@H](NC(=O)[C@H](Cc1ccccc1)NC(=O)[C@H](CC(=O)O)NC(=O)[C@H](CCCNC(=N)N)NC(=O)[C@@H](NC(=O)[C@H](C)NC(=O)[C@H](CC(C)C)NC(=O)[C@H](CC(N)=O)NC(=O)[C@H](CC(=O)O)NC(=O)[C@H](CC(C)C)NC(=O)[C@@H](NC(=O)[C@@H](NC(=O)[C@H](CC(N)=O)NC(=O)[C@H](CCSC)NC(=O)[C@H](CCC(=O)O)NC(=O)[C@H](CC(=O)O)NC(=O)[C@H](CO)NC(=O)[C@H](Cc1ccccc1)NC(=O)[C@H](CO)NC(=O)CNC(=O)[C@H](CC(=O)O)NC(=O)[C@@H](C)NC(=O)[C@@H](N)Cc1c[nH]cn1)[C@@H](C)O)[C@@H](C)CC)[C@@H](C)O)C(=O)N[C@@H](CC(N)=O)C(=O)N[C@@H](Cc1c[nH]c2ccccc12)C(=O)N[C@@H](CC(C)C)C(=O)N[C@H](C(=O)N[C@@H](CCC(N)=O)C(=O)N[C@H](C(=O)N[C@@H](CCCCN)C(=O)N[C@H](C(=O)N[C@H](C(=O)N[C@@H](CC(=O)O)C(=O)O)[C@@H](C)O)[C@@H](C)CC)[C@@H](C)O)[C@@H](C)CC` [[DAla2]ratGLP-2(1-33)] (H-H[dA]DGSFSDEMNTILDNLATRDFINWLIQTKITD-OH), the “cleaved by DPP-IV after the 24 hour incubation” value at human placental DPP-IV is “No cleavage products were detected”. This compound registered a metabolised at 24 h, 0.19 mg/ml at DPP-IV [1] (setting [5]) of 0%. Also, in the series on CD1 mice, the “% Increase in small bowel weight” value came to 86% and the “% Activity (small bowel inducing activity relative to native rat GLP-2(1-33) = 100%)” value stood at 210%.
With `CC[C@H](C)[C@H](NC(=O)[C@H](Cc1ccccc1)NC(=O)[C@H](CC(=O)O)NC(=O)[C@H](CCCNC(=N)N)NC(=O)[C@H](C)NC(=O)[C@H](C)NC(=O)[C@H](CC(C)C)NC(=O)[C@H](CC(N)=O)NC(=O)[C@H](CC(=O)O)NC(=O)[C@H](CC(C)C)NC(=O)[C@@H](NC(=O)[C@@H](NC(=O)[C@H](CC(N)=O)NC(=O)[C@H](CCSC)NC(=O)[C@H](CCC(=O)O)NC(=O)[C@H](CC(=O)O)NC(=O)[C@H](CO)NC(=O)[C@H](Cc1ccccc1)NC(=O)[C@H](CO)NC(=O)CNC(=O)[C@H](CC(=O)O)NC(=O)CNC(=O)[C@@H](N)Cc1c[nH]cn1)[C@@H](C)O)[C@@H](C)CC)C(=O)N[C@@H](CC(N)=O)C(=O)N[C@@H](Cc1c[nH]c2ccccc12)C(=O)N[C@@H](CC(C)C)C(=O)N[C@H](C(=O)N[C@@H](CCC(N)=O)C(=O)N[C@H](C(=O)N[C@@H](CCCCN)C(=O)N[C@H](C(=O)N[C@H](C(=O)N[C@@H](CC(=O)O)C(=O)O)[C@@H](C)O)[C@@H](C)CC)[C@@H](C)O)[C@@H](C)CC` [[Gly2]hGLP-2(1-33)], in the series with CD1 mice, the “% Increase in small bowel weight” value is given as 59%, the “intestinotrophic activity compared with the naturally occurring molecule / rGLP-2 (in words)” value is “substantially increased” and the “% Activity (small bowel inducing activity relative to native rat GLP-2(1-33) = 100%)” value turned out to be 300%. The compound also yielded a metabolised at 24 h, 0.19 mg/ml at DPP-IV [2] of 0%.
Regarding “H-HADGSFSDEMNTILDNLATRDFINWLIQTKITD-OH [ratGLP-2(1-33), reference compound]”, the metabolised at 24 h, 0.19 mg/ml at DPP-IV [1] (setting [5]) stood at 58%; at DPP-IV [1] (pH 7.4, cleaved by DPP-IV after the 24 hour incubation, human placental DPP-IV 0.125 mU, peptide 0.2 mg/ml, PBS pH 7.4, 37° C.) it was 22%. The “% Increase in small bowel weight” value in the series with CD1 mice is reported as 45%. The “% Activity (small bowel inducing activity relative to native rat GLP-2(1-33) = 100%)” value with CD1 mice stood at 100%. The “increase in % change in small bowel weight” value with Fisher 334 DPP-IV-rats is 40-50%. In addition, the “% change in small bowel weight” value in the series on Sprague-Dawley rats (2.5 μg b.i.d. s.c.) and with Sprague-Dawley rats (25 μg b.i.d. s.c.) was “no % change” each time.
In the case of “H-HGDGSFSDEMNTILDNLATRDFINWLIQTKITD-OH [[Gly2]ratGLP-2(1-33)]”, the “cleaved by DPP-IV after the 24 hour incubation” value at human placental DPP-IV was “No cleavage products were detected”. In addition, on DPP-IV [1] (setting [5]), the metabolised at 24 h, 0.19 mg/ml came to 0%. Moreover, in the series with CD1 mice, the “% Increase in small bowel weight” value is 70%, the “intestinotrophic activity compared with the naturally occurring molecule / rGLP-2 (in words)” value was “greatly enhanced” and the “% Activity (small bowel inducing activity relative to native rat GLP-2(1-33) = 100%)” value came out at 196%. The “increase in % change in small bowel weight” value with Fisher 334 DPP-IV-rats was 50-60%. Further, the “increase in small bowel weight” value in series [3] was 75-85%.
Compound “[bAla2]hGLP-2(1-33) (H-H[βAla]DGSFSDEMNTILDNLAARDFINWLIQTKITD-OH; SMILES CC[C@H](C)[C@H](NC(=O)[C@H](Cc1ccccc1)NC(=O)[C@H](CC(=O)O)NC(=O)[C@H](CCCNC(=N)N)NC(=O)[C@H](C)NC(=O)[C@H](C)NC(=O)[C@H](CC(C)C)NC(=O)[C@H](CC(N)=O)NC(=O)[C@H](CC(=O)O)NC(=O)[C@H](CC(C)C)NC(=O)[C@@H](NC(=O)[C@@H](NC(=O)[C@H](CC(N)=O)NC(=O)[C@H](CCSC)NC(=O)[C@H](CCC(=O)O)NC(=O)[C@H](CC(=O)O)NC(=O)[C@H](CO)NC(=O)[C@H](Cc1ccccc1)NC(=O)[C@H](CO)NC(=O)CNC(=O)[C@H](CC(=O)O)NC(=O)CCNC(=O)[C@@H](N)Cc1c[nH]cn1)[C@@H](C)O)[C@@H](C)CC)C(=O)N[C@@H](CC(N)=O)C(=O)N[C@@H](Cc1c[nH]c2ccccc12)C(=O)N[C@@H](CC(C)C)C(=O)N[C@H](C(=O)N[C@@H](CCC(N)=O)C(=O)N[C@H](C(=O)N[C@@H](CCCCN)C(=O)N[C@H](C(=O)N[C@H](C(=O)N[C@@H](CC(=O)O)C(=O)O)[C@@H](C)O)[C@@H](C)CC)[C@@H](C)O)[C@@H](C)CC)” showed a not cleaved in series [4] of 0% cleaved by DPP-IV.
Consider “[tBuGly2]hGLP-2 (H-H[Tle]DGSFSDEMNTILDNLAARDFINWLIQTKITD-OH; SMILES CC[C@H](C)[C@H](NC(=O)[C@H](Cc1ccccc1)NC(=O)[C@H](CC(=O)O)NC(=O)[C@H](CCCNC(=N)N)NC(=O)[C@H](C)NC(=O)[C@H](C)NC(=O)[C@H](CC(C)C)NC(=O)[C@H](CC(N)=O)NC(=O)[C@H](CC(=O)O)NC(=O)[C@H](CC(C)C)NC(=O)[C@@H](NC(=O)[C@@H](NC(=O)[C@H](CC(N)=O)NC(=O)[C@H](CCSC)NC(=O)[C@H](CCC(=O)O)NC(=O)[C@H](CC(=O)O)NC(=O)[C@H](CO)NC(=O)[C@H](Cc1ccccc1)NC(=O)[C@H](CO)NC(=O)CNC(=O)[C@H](CC(=O)O)NC(=O)[C@@H](NC(=O)[C@@H](N)Cc1c[nH]cn1)C(C)(C)C)[C@@H](C)O)[C@@H](C)CC)C(=O)N[C@@H](CC(N)=O)C(=O)N[C@@H](Cc1c[nH]c2ccccc12)C(=O)N[C@@H](CC(C)C)C(=O)N[C@H](C(=O)N[C@@H](CCC(N)=O)C(=O)N[C@H](C(=O)N[C@@H](CCCCN)C(=O)N[C@H](C(=O)N[C@H](C(=O)N[C@@H](CC(=O)O)C(=O)O)[C@@H](C)O)[C@@H](C)CC)[C@@H](C)O)[C@@H](C)CC)”, for which the not cleaved in series [4] is on record as 0% cleaved by DPP-IV.
